Measurements taken from patent publication US10550110B2, “Tetrahydroquinoline sulfonamide derivatives as inverse agonists of retinoid-related orphan receptor gamma (ROR gamma (t))” (GALDERMA RESEARCH & DEVELOPMENT, priority 2014, dated 2020).

Molecular target: T1, ROR gamma ligand-binding domain (LBD) (hRORg) (Homo sapiens, UniProt P51449)
T1 construct: expressed in transfected cells; host or cells: HG5LN (HeLa line with GAL4-responsive luciferase reporter)
T1 sequence (P51449 269-508 limits assumed): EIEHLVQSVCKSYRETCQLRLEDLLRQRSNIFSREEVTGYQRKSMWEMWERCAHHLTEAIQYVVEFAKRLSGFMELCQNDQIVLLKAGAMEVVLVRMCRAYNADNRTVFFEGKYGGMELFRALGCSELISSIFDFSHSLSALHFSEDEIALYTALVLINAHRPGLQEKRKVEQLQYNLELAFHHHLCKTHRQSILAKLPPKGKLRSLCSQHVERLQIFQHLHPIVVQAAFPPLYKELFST
Assay: GAL4-RORγ transactivation (luciferase reporter, HG5LN HeLa line)
Type: cell-based
Settings: HG5LN HeLa line with GAL4 DBD fused to ROR gamma LBD, 18 hours incubation
Excerpt: GAL4—RORγ Transactivation
The RORγ transactivation model was developed from the line HG5LN, which is a HeLa line that stably expresses a luciferase reporter gene controlled by a pentamer of the GAL4 recognition domain of yeast and of a β-globin promoter. The HG5LN line was stably transfected by the DNA-binding domain (DBD) of GAL4 fused to the ROR gamma ligand-binding domain (LBD). Molecules that inhibit the ROR gamma constitutive activity reduce the luciferase expression, thus leading to a reduction in the emitted luminescence.
The cells are seeded in 384-well plates (5000 cells in 45 μL/well of culture medium containing 10% fetal calf serum) and incubated for 4 hours at 37° C., 5% CO2. 5 μL of the test molecules (compounds described in the tables described above) are then added to each well and the plates are incubated for 18 hours at a temperature of 37° C. under 5% of CO2. 20 μL of luciferase substrate (Promega) are added to each well and the luminescence emitted is read by a microplate reader.
The luminescence units (“RLU”) are normalized by positive controls (“POS” containing a saturated concentration of N-(2,2,2-trifluoroethyl)-N-[4-[2,2,2-trifluoro-1-hydroxy-1-(trifluoromethyl)ethyl]phenyl])benzenesulfonamide and negative controls (“NEG” containing DMSO): % inhibition=((RLU-NEG)*100)/(POS-NEG). The IC50 values are calculated from a 4-parameter logistic model using the XLFit software (IDBS).

IC50 [nM]	SMILES
100 to 1000	CCc1ccc(N(CC(C)C)S(=O)(=O)c2ccc3c(c2)C(O)CCN3CC2CCC(F)(F)C2)cc1 (stereo not drawn) [Compound 34, 1-(3,3-difluorocyclopentylmethyl)-4-hydroxy-1,2,3,4-tetrahydroquinoline-6-sulfonic acid (4-ethylphenyl)isobutylamide]
> 1000	CCc1ccc(N(CC(C)C)S(=O)(=O)c2ccc3c(c2)C(O)CCN3CC2CCC(C#N)CC2)cc1 (stereo not drawn) [Compound 35, 1-(4-cyanocyclohexylmethyl)-4-hydroxy-1,2,3,4-tetrahydroquinoline-6-sulfonic acid (4-ethylphenyl)isobutylamide]
100 to 1000	CCc1ccc(N(CC(C)C)S(=O)(=O)c2ccc3c(c2)C(O)CCN3OC2CCOCC2)cc1 (stereo not drawn) [Compound 36, 4-hydroxy-1-(tetrahydropyran-4-yloxy)-1,2,3,4-tetrahydroquinoline-6-sulfonic acid (4-ethylphenyl)isobutylamide]
> 1000	CCc1ccc(N(CC(C)C)S(=O)(=O)c2ccc3c(c2)C(O)CCN3[C@H](C)C2CCOCC2)cc1 (stereo partly drawn) [Compound 38, 4-hydroxy-1-[(R)-1-(tetrahydropyran-4-yl)ethyl]-1,2,3,4-tetrahydroquinoline-6-sulfonic acid (4-ethylphenyl)isobutylamide]
> 1000	CCc1ccc(N(CC(C)C)S(=O)(=O)c2ccc3c(c2)C(O)CCN3[C@H](C)C2CCOCC2)cc1 (stereo partly drawn) [Compound 39, 4-hydroxy-1-[(R)-1-(tetrahydropyran-4-yl)ethyl]-1,2,3,4-tetrahydroquinoline-6-sulfonic acid (4-ethylphenyl)isobutylamide]
100 to 1000	CCc1ccc(N(CC(C)C)S(=O)(=O)c2ccc3c(c2)C(O)CCN3[C@@H](C)C2CCOCC2)cc1 (stereo partly drawn) [Compound 40, 4-hydroxy-1-[(S)-1-(tetrahydropyran-4-yl)ethyl]-1,2,3,4-tetrahydroquinoline-6-sulfonic acid (4-ethylphenyl)isobutylamide]
100 to 1000	CCc1ccc(N(CC(C)C)S(=O)(=O)c2ccc3c(c2)C(O)CCN3[C@@H](C)C2CCOCC2)cc1 (stereo partly drawn) [Compound 41, 4-hydroxy-1-[(S)-1-(tetrahydropyran-4-yl)ethyl]-1,2,3,4-tetrahydroquinoline-6-sulfonic acid (4-ethylphenyl)isobutylamide]
100 to 1000	CCc1ccc(N(CC(C)C)S(=O)(=O)c2ccc3c(c2)C(O)CCN3CC2CC3(COC3)C2)cc1 (stereo not drawn) [Compound 44, 4-hydroxy-1-(2-oxaspiro[3.3]hept-6-ylmethyl)-1,2,3,4-tetrahydroquinoline-6-sulfonic acid (4-ethylphenyl)isobutylamide]
> 1000	CCc1ccc(N(CC(C)C)S(=O)(=O)c2ccc3c(c2)C(O)CCN3Cc2ccc(C(=O)NO)cc2)cc1 (stereo not drawn) [Compound 47, 4-{6-[(4-ethylphenyl)isobutylsulfamoyl]-4-hydroxy-3,4-dihydro-2H-quinolin-1-ylmethyl}-N-hydroxybenzamide]
> 1000	CCc1ccc(N(CC(C)C)S(=O)(=O)c2ccc3c(c2)C(O)CCN3[C@H]2CC[C@H](C(=O)OC)CC2)cc1 (stereo partly drawn) [Compound 48, methyl (1R,4R)-4-(6-(N-(4-ethylphenyl)-N-isobutylsulfamoyl)-4-hydroxy-3,4-dihydroquinolin-1(2H)-yl)cyclohexane-1-carboxylate]
> 1000	CCc1ccc(N(CC(C)C)S(=O)(=O)c2ccc3c(c2)C(O)CCN3[C@H]2CC[C@@H](C(=O)OC)CC2)cc1 (stereo partly drawn) [Compound 49, methyl (1S,4S)-4-(6-(N-(4-ethylphenyl)-N-isobutylsulfamoyl)-4-hydroxy-3,4-dihydroquinolin-1(2H)-yl)cyclohexane-1-carboxylate]
> 1000	CCc1ccc(N(CC(C)C)S(=O)(=O)c2ccc3c(c2)C(O)CCN3CC2CCN(C(=O)OC)C2)cc1 (stereo not drawn) [Compound 50, methyl ester of 3-{6-[(4-ethylphenyl)isobutylsulfamoyl]-4-hydroxy-3,4-dihydro-2H-quinolin-1-ylmethyl}pyrrolidine-1-carboxylic acid]
